{"source": "patent US20090203697A1", "about": "“HETEROCYCLIC TYPE CINNAMIDE DERIVATIVE” (priority 2006, published 2009)", "tested_on": "Aβ42 production", "assay": "Quantification of Aβ peptide in neuronal culture from rat fetus brain (Aβ ELISA)", "format": "cell-based", "conditions": "72 h; rat primary neuronal culture (cerebral cortex, embryonic day 18 Wistar rats); medium collected three days after addition of the compound; Aβx-42 ELISA; read-out: Aβ42 production reducing effect IC50", "protocol": "Quantification of Aβ Peptide in Neuronal Culture from Rat Fetus Brain\n(1) Rat Primary Neuronal Culture\nPrimary neuronal cultures were prepared from the cerebral cortex of embryonic day 18 Wistar rats (Charles River Japan, Yokohama, Japan). Specifically, the embryos were aseptically removed from pregnant rats under ether anesthesia. The brain was isolated from the embryo and immersed in an ice-cold L-15 medium (such as Invitrogen Corp. Cat #11415-064, Carlsbad, Calif., USA, or SIGMA L1518). The cerebral cortex was collected from the isolated brain under a stereoscopic microscope. The cerebral cortex fragments collected were enzymatically treated in an enzyme solution containing 0.25% trypsin (Invitrogen Corp. Cat #15050-065, Carlsbad, Calif., USA) and 0.01% DNase (Sigma D5025, St. Louis, Mo., USA) at 37° C. for 30 minutes to disperse the cells. Here, the enzymatic reaction was stopped by adding inactivated horse serum to the solution. The enzymatically treated solution was centrifuged at 1,500 rpm for five minutes to remove the supernatant. 5 to 10 ml of a medium was added to the resulting cell mass. Neurobasal medium (Invitrogen Corp. Cat #21103-049, Carlsbad, Calif., USA) supplemented with 2% B27 supplement (Invitrogen Corp. Cat #17504-044, Carlsbad, Calif., USA), 25 μM 2-mercaptoethanol (2-ME, WAKO Cat #139-06861, Osaka, Japan), 0.5 mM L-glutamine (Invitrogen Corp. Cat #25030-0817 Carlsbad, Calif., USA), and Antibiotics-Antimycotics (Invitrogen Corp. Cat #15240-062, Carlsbad, Calif., USA) was used as the medium (Neurobasal/B27/2-ME). However, the above Neurobasal medium not supplemented with 2-ME (Neurobasal/B27) was used for the assay. The cells were redispersed by mild pipetting of the cell mass to which the medium was added. The cell dispersion was filtered through a 40-μm nylon mesh (Cell Strainer, Cat #35-2340, Becton Dickinson Labware, Franklin Lakes, N.J., USA) to remove the remaining cell mass, and thus a neuronal cell suspension was obtained. The neuronal cell suspension was diluted with the medium and then plated in a volume of 100 μl/well at an initial cell density of 5×10^5 cells/cm^2 in a 96-well polystyrene culture plate pre-coated with poly-L or D-lysine (Falcon Cat #35-3075, Becton Dickinson Labware, Franklin Lakes, N.J., USA coated with poly-L-lysine using the method shown below, or BIOCOAT™ cell environments Poly-D-lysine cell ware 96-well plate, Cat #35-6461, Becton Dickinson Labware, Franklin Lakes, N.J., USA). Poly-L-lysine coating was carried out as follows. 100 μg/ml of a poly-L-lysine (SIGMA P2636, St. Louis, Mo., USA) solution was aseptically prepared with a 0.15 M borate buffer. (pH 8.5). […] of the solution was added to the 96-well polystyrene culture plate and incubated at room temperature for one or more hours or at 4° C. overnight or longer. The coated 96-well polystyrene culture plate was washed with sterile water four or more times, and then dried or rinsed with, for example, sterile PBS or medium, and used for cell plating. The plated cells were cultured in the culture plate at 37° C. in 5% CO2-95% air for one day. Then, the total amount of the medium was replaced with a fresh Neurobasal™/B27/2-ME medium, and then the cells were cultured for further three days.\nThe drug was added to the culture plate on Day 4 of culture as follows. The total amount of the medium was removed from the wells, and 180 μl/well of Neurobasal medium not containing 2-ME and containing 2% B-27 (Neurobasal/B27) was added thereto. A solution of the test compound in dimethyl sulfoxide (hereinafter abbreviated as DMSO) was diluted with Neurobasal/B27 to a concentration 10-fold higher than the final concentration. 20 μl/well of the dilution was added to and sufficiently mixed with the medium. The final DMSO concentration was 1% or less. Only DMSO was added to the control group.\nThe cells were cultured for three days after addition of the compound, and the total amount of the medium was collected. […]", "data": [{"compound": "COc1cc(/C=C2\\O[C@@H](C)CN(C(C)(C)c3ccc(F)cc3)C2=O)ccc1-n1cnc(C)n1", "note": "[Example 17, (Z)-(6S)-4-[1-(4-fluorophenyl)-1-methylethyl]-2-[1-[3-methoxy-4-(3-methyl[1,2,4]triazol-1-yl)phenyl]methylidene]-6-methylmorpholin-3-one]", "values": [{"measurement": "IC50", "result": 180, "unit": "nM"}]}, {"compound": "COc1cc(/C=C2\\CCCN([C@@H](C)c3cc(F)c(F)c(F)c3)C2=O)ccc1-n1cnc(C)n1", "note": "[Example 6, (E)-3-[1-[3-methoxy-4-(3-methyl[1,2,4]triazol-1-yl)phenyl]methylidene]-1-[(S)-1-(3,4,5-trifluorophenyl)ethyl]piperidin-2-one]", "values": [{"measurement": "IC50", "result": 320, "unit": "nM"}]}, {"compound": "COc1cc(/C=C2\\CCCN([C@H](c3cc(F)c(F)c(F)c3)[C@@H](C)O)C2=O)ccc1-n1cnc(C)n1", "note": "[Example 21, (E)-1-[(1R,2R)-2-hydroxy-1-(3,4,5-trifluorophenyl)propyl]-3-[1-[3-methoxy-4-(3-methyl[1,2,4]triazol-1-yl)phenyl]methylidene]piperidin-2-one]", "values": [{"measurement": "IC50", "result": 60, "unit": "nM"}]}, {"compound": "COc1cc(/C=C2\\CCCN([C@H](c3ccc(F)cc3)[C@@H](C)O)C2=O)ccc1-n1cnc(C)n1", "note": "[Example 22, (E)-1-[(1R,2R)-1-(4-fluorophenyl)-2-hydroxypropyl]-3-{1-[3-methoxy-4-(3-methyl[1,2,4]triazol-1-yl)phenyl]methylidene}piperidin-2-one]", "values": [{"measurement": "IC50", "result": 50, "unit": "nM"}]}, {"compound": "COc1cc(/C=C2\\CC[C@H]3CCC[C@@H](c4ccc(F)cc4)N3C2=O)ccc1-n1cnc(C)n1", "note": "[Example 28, (E)-(6S,9aR)-6-(4-fluorophenyl)-3-{1-[3-methoxy-4-(3-methyl[1,2,4]triazol-1-yl)phenyl]methylidene}octahydroquinolizin-4-one]", "values": [{"measurement": "IC50", "result": 440, "unit": "nM"}]}, {"compound": "COc1cc(/C=C2\\O[C@@H](C)CN([C@H](c3ccc(F)cc3)[C@@H](C)O)C2=O)ccc1-n1cnc(C)n1", "note": "[Example 24, (6S)-(Z)-4-[(1R,2R)-1-(4-fluorophenyl)-2-hydroxypropyl]-2-[1-[3-methoxy-4-(3-methyl[1,2,4]triazol-1-yl)phenyl]methylidene]-6-methylmorpholin-3-one]", "values": [{"measurement": "IC50", "result": 290, "unit": "nM"}]}, {"compound": "COc1cc(/C=C2\\OCCN([C@H](c3cc(F)c(F)c(F)c3)[C@@H](C)O)C2=O)ccc1-n1cnc(C)n1", "note": "[Example 20, (Z)-4-[(1R,2R)-2-hydroxy-1-(3,4,5-trifluorophenyl)propyl]-2-[1-[3-methoxy-4-(3-methyl[1,2,4]triazol-1-yl)phenyl]methylidene]morpholin-3-one]", "values": [{"measurement": "IC50", "result": 210, "unit": "nM"}]}, {"compound": "COc1cc(/C=C2\\O[C@@H](C)CN([C@H](c3cc(F)c(F)c(F)c3)[C@@H](C)O)C2=O)ccc1-n1cnc(C)n1", "note": "[Example 18, (Z)-(6S)-4-[(1R,2R)-2-hydroxy-1-(3,4,5-trifluorophenyl)propyl]-2-[1-[3-methoxy-4-(3-methyl[1,2,4]triazol-1-yl)phenyl]methylidene]-6-methylmorpholin-3-one]", "values": [{"measurement": "IC50", "result": 160, "unit": "nM"}]}, {"compound": "COc1cc(/C=C2\\OC(C)(C)CN([C@H](c3ccc(F)cc3)[C@@H](C)O)C2=O)ccc1-n1cnc(C)n1", "note": "[Example 23, (Z)-4-[(1R,2R)-1-(4-fluorophenyl)-2-hydroxypropyl]-2-[1-[3-methoxy-4-(3-methyl[1,2,4]triazol-1-yl)phenyl]methylidene]-6,6-dimethylmorpholin-3-one]", "values": [{"measurement": "IC50", "result": 400, "unit": "nM"}]}, {"compound": "COc1cc(/C=C2\\OC(C)(C)CN([C@H](c3cc(F)c(F)c(F)c3)[C@@H](C)O)C2=O)ccc1-n1cnc(C)n1", "note": "[Example 19, (Z)-4-[(1R,2R)-2-hydroxy-1-(3,4,5-trifluorophenyl)propyl]-2-[1-[3-methoxy-4-(3-methyl[1,2,4]triazol-1-yl)phenyl]methylidene]-6,6-dimethylmorpholin-3-one]", "values": [{"measurement": "IC50", "result": 150, "unit": "nM"}]}, {"compound": "COc1cc(/C=C2\\CC(C)(C)CN([C@@H](C)c3ccc(F)cc3)C2=O)ccc1-n1cnc(C)n1", "note": "[Example 27, (E)-1-[(S)-1-(4-fluorophenyl)ethyl]-3-[1-[3-methoxy-4-(3-methyl[1,2,4]triazol-1-yl)phenyl]methylidene]-5,5-dimethylpiperidin-2-one]", "values": [{"measurement": "IC50", "result": 270, "unit": "nM"}]}, {"compound": "COc1cc(/C=C2\\CC[C@H]3CC[C@@H](c4ccc(F)c(F)c4)N3C2=O)ccc1-n1cnc(C)n1", "note": "[Example 26, (E)-(3S,8aS)-3-(3,4-difluorophenyl)-6-[3-methoxy-4-(3-methyl[1,2,4]triazol-1-yl)benzylidene]hexahydroindolizin-5-one]", "values": [{"measurement": "IC50", "result": 380, "unit": "nM"}]}]}
